Source: ChEMBL document CHEMBL3638647, “Compounds useful as inhibitors of ATR kinase” (2014)

Molecular target: Serine/threonine-protein kinase ATR (Homo sapiens, UniProt Q13535)
Experiment: Inhibition Assay: Compounds were screened for their ability to inhibit ATR kinase using a radioactive-phosphate incorporation assay. Assays were carried out in a mixture of 50 mM Tris/HCl (pH 7.5), 10 mM MgCl2 and 1 mM DTT. Final substrate concentrations were 10 Î¼M [Î³-33P]ATP (3mCi 33P ATP/mmol ATP, Perkin Elmer) and 800 Î¼M target peptide (ASELPASQPQPFSAKKK).Assays were carried out at 25° C. in the presence of 5 nM full-length ATR. An assay stock buffer solution was prepared containing all of the reagents listed above, with the exception of ATP and the test compound of interest. 13.5 Î¼L of the stock solution was placed in a 96 well plate followed by addition of 2 Î¼L of DMSO stock containing serial dilutions of the test compound (typically starting from a final concentration of 15 Î¼M with 3-fold serial dilutions) in duplicate (final DMSO concentration 7%). The plate was pre-incubated for 10 minutes at 25° C. and the reaction initiated by addition of 15 Î¼L [Î³-33P]ATP.

Sequence of Serine/threonine-protein kinase ATR (Q13535 whole entry): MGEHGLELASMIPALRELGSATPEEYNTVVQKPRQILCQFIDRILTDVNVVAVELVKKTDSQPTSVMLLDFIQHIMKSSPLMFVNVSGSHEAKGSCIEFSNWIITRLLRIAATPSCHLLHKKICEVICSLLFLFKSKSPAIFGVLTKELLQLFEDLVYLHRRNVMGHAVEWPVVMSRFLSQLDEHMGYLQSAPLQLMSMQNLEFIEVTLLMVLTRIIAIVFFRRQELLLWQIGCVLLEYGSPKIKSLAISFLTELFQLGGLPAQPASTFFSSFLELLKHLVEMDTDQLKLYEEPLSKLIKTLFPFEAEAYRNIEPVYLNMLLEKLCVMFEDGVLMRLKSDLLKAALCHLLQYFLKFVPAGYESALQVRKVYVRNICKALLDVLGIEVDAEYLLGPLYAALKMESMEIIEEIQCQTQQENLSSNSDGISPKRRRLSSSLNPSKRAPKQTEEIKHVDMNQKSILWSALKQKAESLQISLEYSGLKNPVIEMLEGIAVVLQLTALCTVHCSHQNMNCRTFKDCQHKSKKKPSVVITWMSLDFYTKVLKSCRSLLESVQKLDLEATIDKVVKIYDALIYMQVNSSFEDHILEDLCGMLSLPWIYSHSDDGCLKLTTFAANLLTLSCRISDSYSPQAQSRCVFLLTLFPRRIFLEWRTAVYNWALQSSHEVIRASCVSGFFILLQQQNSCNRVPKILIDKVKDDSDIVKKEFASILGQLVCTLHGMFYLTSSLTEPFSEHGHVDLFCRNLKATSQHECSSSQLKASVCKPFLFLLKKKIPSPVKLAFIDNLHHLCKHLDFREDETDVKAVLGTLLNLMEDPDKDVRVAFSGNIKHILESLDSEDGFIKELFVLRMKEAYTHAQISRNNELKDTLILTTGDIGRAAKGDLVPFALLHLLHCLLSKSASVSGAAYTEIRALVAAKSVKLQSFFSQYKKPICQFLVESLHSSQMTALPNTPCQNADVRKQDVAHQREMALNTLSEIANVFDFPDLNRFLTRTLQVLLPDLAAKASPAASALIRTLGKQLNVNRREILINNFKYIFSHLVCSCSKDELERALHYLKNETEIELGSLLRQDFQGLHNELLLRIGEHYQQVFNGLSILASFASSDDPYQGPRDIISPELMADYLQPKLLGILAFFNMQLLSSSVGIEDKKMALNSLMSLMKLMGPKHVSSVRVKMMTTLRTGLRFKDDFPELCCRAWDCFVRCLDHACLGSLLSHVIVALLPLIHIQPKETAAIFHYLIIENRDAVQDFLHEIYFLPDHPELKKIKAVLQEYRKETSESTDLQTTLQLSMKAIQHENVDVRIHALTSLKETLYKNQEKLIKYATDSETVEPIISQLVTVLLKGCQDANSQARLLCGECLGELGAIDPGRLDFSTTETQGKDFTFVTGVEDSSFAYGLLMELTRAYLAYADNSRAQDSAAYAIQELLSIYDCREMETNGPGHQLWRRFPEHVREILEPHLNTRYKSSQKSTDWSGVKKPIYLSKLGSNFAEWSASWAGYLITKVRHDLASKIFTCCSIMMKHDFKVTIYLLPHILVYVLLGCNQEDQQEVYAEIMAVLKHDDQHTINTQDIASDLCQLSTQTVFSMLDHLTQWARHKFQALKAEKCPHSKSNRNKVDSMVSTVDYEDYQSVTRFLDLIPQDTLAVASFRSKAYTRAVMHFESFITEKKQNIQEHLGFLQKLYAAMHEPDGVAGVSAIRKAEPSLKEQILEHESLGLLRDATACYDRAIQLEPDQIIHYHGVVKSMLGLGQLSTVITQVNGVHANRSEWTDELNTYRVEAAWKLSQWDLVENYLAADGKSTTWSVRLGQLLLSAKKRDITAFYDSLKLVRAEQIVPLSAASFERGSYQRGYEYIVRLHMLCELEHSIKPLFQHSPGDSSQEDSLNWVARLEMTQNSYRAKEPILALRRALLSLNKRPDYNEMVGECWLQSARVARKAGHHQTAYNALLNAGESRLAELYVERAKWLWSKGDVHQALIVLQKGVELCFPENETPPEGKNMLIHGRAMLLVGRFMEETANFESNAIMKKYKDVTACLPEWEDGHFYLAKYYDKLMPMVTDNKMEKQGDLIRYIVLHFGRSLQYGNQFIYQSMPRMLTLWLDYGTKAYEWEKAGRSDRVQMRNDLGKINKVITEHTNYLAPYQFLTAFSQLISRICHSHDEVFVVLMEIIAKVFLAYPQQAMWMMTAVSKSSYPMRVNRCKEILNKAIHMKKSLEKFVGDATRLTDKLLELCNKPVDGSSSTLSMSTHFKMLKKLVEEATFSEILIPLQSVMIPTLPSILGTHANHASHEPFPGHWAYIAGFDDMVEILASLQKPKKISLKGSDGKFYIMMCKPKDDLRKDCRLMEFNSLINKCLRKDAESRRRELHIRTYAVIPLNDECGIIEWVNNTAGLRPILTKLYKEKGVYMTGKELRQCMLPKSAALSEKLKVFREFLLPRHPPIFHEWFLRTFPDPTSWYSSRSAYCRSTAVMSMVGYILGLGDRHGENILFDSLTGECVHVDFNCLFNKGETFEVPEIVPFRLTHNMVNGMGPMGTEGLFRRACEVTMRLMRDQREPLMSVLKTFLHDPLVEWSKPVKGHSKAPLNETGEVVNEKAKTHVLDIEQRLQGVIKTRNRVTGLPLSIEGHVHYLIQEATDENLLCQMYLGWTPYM

- Ki: 90 nM
Structure (SMILES): CNCc1ccc(C2=NOC(c3nc(-c4ccc(S(=O)(=O)C(C)C)cc4)cnc3N)C2)cc1 (stereo unspecified)
